From ChEMBL document CHEMBL6182872, “Synthesis of Benzo[h]quinoline derivatives and evaluation of their insecticidal activity against Culex pipiens L. larvae” (Eur J Med Chem, 2025)
≈ marks a conversion by molar mass, not a printed value.

What follows are compounds tested on Culex pipiens (assay: Toxicity in Culex pipiens at third larval instar measured after 24 hrs).
Type: organism-based

Row | SMILES | LC50
1 | Cc1ccc(C(=O)C/C(=C\c2cc3ccc4ccccc4c3nc2Cl)C(=O)N/N=C/c2ccccc2O)cc1 | 29.3 µg/mL (≈ 54.9 µM)
2 | CC(=O)N(C(C)=O)N1C(=O)/C(=C/c2cc3ccc4ccccc4c3nc2Cl)C=C1c1ccc(C)cc1 | 329 µg/mL (≈ 663 µM)
3 | CC(=O)NNC(=O)/C(=C/c1cc2ccc3ccccc3c2nc1Cl)CC(=O)c1ccc(C)cc1 | 116 µg/mL (≈ 245 µM)
4 | CC(=O)NN1C(=O)/C(=C/c2cc3ccc4ccccc4c3nc2Cl)C=C1c1ccc(C)cc1 | 97.5 µg/mL (≈ 215 µM)
5 | Cc1ccc(C2=C/C(=C\c3cc4ccc5ccccc5c4nc3Cl)C(=O)N2NC(=O)c2ccccc2)cc1 | 4.9 µg/mL (≈ 9.5 µM)
6 | CCOP(=S)(OCC)Oc1nc(Cl)c(Cl)cc1Cl [CHLORPYRIFOS] | 272 µg/mL (≈ 776 µM)
7 | CCCCCCCCCCCC(=O)NN1C(=O)/C(=C/c2cc3ccc4ccccc4c3nc2Cl)C=C1c1ccc(C)cc1 | 0.4 µg/mL (≈ 0.673 µM)
8 | Cc1ccc(C(=O)C/C(=C\c2cc3ccc4ccccc4c3nc2Cl)C(=O)NNC(=O)CCC(=O)NNC(=O)/C(=C/c2cc3ccc4ccccc4c3nc2Cl)CC(=O)c2ccc(C)cc2)cc1 | 136 µg/mL (≈ 144 µM)
9 | Cc1ccc(C2=C/C(=C\c3cc4ccc5ccccc5c4nc3Cl)C(=O)N2NC(=O)CCl)cc1 | 23.9 µg/mL (≈ 48.9 µM)
10 | Cc1ccc(C(=O)C/C(=C\c2cc3ccc4ccccc4c3nc2Cl)C(=O)NN)cc1 | 86.4 µg/mL (≈ 201 µM)
11 | COc1ccc(/C=N/NC(=O)/C(=C/c2cc3ccc4ccccc4c3nc2Cl)CC(=O)c2ccc(C)cc2)cc1OC | 202 µg/mL (≈ 349 µM)
